The source of these data is patent US9029377B2, “Platelet-activating factor receptor antagonists” (Merck Sharp & Dohme Corp., priority 2009, dated 2015).

The assay concerns the target PAFR (Homo sapiens, UniProt P25105). Description: PAF Binding Assay (PAFR binding).

PAFR, sequence (P25105 whole entry): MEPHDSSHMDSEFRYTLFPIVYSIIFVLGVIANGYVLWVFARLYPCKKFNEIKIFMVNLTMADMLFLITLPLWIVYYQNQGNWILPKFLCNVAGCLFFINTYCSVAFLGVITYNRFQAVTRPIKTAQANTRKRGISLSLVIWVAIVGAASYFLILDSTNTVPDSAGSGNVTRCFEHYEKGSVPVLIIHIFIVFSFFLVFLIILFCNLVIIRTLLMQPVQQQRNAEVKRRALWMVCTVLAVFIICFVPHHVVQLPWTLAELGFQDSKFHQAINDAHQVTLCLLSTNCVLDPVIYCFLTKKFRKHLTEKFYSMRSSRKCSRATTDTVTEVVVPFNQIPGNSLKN

For the compound `O=S(=O)(N[C@H]1CCC[C@@H](n2cnnc2)C1)c1ccc(-c2ccc(OCC(F)(F)F)nc2)c(F)c1` [Compound 2Ef, 3-fluoro-N-[(1S,3R)-3-(4H-1,2,4-triazol-4-yl)cyclohexyl]-4-[6-(2,2,2-trifluoroethoxy)pyridin-3-yl]benzenesulfonamide], the IC50 (in general, the point on the concentration scale where inhibition reaches its midpoint) turned out to be 7 nM.

`CCCCOc1ccc(S(=O)(=O)N[C@@H]2C[C@H](n3cnnc3C)CC(F)(F)C2)cc1F` [Compound 2Hj, 4-butoxy-N-[(1R,5S)-3,3-difluoro-5-(3-methyl-4H-1,2,4-triazol-4-yl)cyclohexyl]-3-fluorobenzenesulfonamide] came in with an IC50 of 3.6 nM.

`CCCCOc1cc(F)c(S(=O)(=O)N[C@H]2CCC[C@@H](n3cnnc3C)C2)cc1F` [Compound 2Nae, 4-butoxy-2,5-difluoro-N-[(1S,3R)-3-(3-methyl-4H-1,2,4-triazol-4-yl)cyclohexyl]benzenesulfonamide] yielded an IC50 of 5.4 nM.

Take `CCc1cc(-c2cccnc2OC)ccc1S(=O)(=O)N[C@H]1CCC[C@@H](n2cnnc2)C1` [Compound 2Aq, 2-ethyl-4-(2-methoxypyridin-3-yl)-N-[(1S,3R)-3-(4H-1,2,4-triazol-4-yl)cyclohexyl]benzenesulfonamide]: the IC50 worked out at 27 nM.

The compound `Cc1nncn1[C@@H]1CCC[C@H](NS(=O)(=O)c2ccc(-c3ccc(OCC(F)(F)F)nc3)cc2F)C1` [Compound 2Jh, 2-fluoro-N-[(1S,3R)-3-(3-methyl-4H-1,2,4-triazol-4-yl)cyclohexyl]-4-[6-(2,2,2-trifluoroethoxy)pyridin-3-yl]benzenesulfonamide] returned an IC50 of 3.4 nM.

`O=S(=O)(N[C@H]1CCC[C@@H](n2cnnc2)C1)c1ccc(-c2noc(C3CC3)n2)cc1` [Compound 2Ml, 4-(5-cyclopropyl-1,2,4-oxadiazol-3-yl)-N-[(1S,3R)-3-(4H-1,2,4-triazol-4-yl)cyclohexyl]benzenesulfonamide] came in with an IC50 of 243 nM.

The compound `CCc1cc(-c2c(C)noc2C)ccc1S(=O)(=O)N[C@H]1CCC[C@@H](n2cnnc2)C1` [Compound 2Az, 4-(3,5-dimethylisoxazol-4-yl)-2-ethyl-N-[(1S,3R)-3-(4H-1,2,4-triazol-4-yl)cyclohexyl]benzenesulfonamide] gave a 50% inhibitory concentration (IC50) of 48 nM.

For the compound `Cc1nncn1[C@@H]1CCC[C@H](NS(=O)(=O)c2cc(-c3ccc(F)cc3)cc(C(F)(F)F)c2)C1` [Compound 3Ab, 4′-fluoro-N-[(1S,3R)-3-(3-methyl-4H-1,2,4-triazol-4-yl)cyclohexyl]-5-(trifluoromethyl)biphenyl-3-sulfonamide], the IC50 turned out to be 4.8 nM.

In turn, `O=S(=O)(N[C@H]1CCC[C@@H](n2cnnc2)C1)c1c(C2CC2)cc(-c2noc(C3CCC3)n2)cc1C1CC1` [Compound 2Rb, 4-(5-cyclobutyl-1,2,4-oxadiazol-3-yl)-2,6-dicyclopropyl-N-[(1S,3R)-3-(4H-1,2,4-triazol-4-yl)cyclohexyl]benzenesulfonamide] came in with an IC50 of 0.1 nM.

`CCc1cc(-c2ccc(O)cc2)ccc1S(=O)(=O)N[C@H]1CCC[C@@H](n2cnnc2)C1` [Compound 2Aad, 3-ethyl-4′-hydroxy-N-[(1S,3R)-3-(4H-1,2,4-triazol-4-yl)cyclohexyl]biphenyl-4-sulfonamide] gave an IC50 of 36 nM.

Compound `CCc1cc(-c2ccc(C(F)(F)F)cc2C)ccc1S(=O)(=O)N[C@H]1CCC[C@@H](n2cnnc2)C1` [Compound 2Abn, 3-ethyl-2′-methyl-N-[(1S,3R)-3-(4H-1,2,4-triazol-4-yl)cyclohexyl]-4′-(trifluoromethyl)biphenyl-4-sulfonamide] gave an IC50 of 22 nM.

With `O=S(=O)(N[C@H]1CCC[C@@H](n2cnnc2)C1)c1cc(-c2cc3ccccc3o2)cc(C(F)(F)F)c1` [Compound 3Aae, 3-(1-benzofuran-2-yl)-N-[(1S,3R)-3-(4H-1,2,4-triazol-4-yl)cyclohexyl]-5-(trifluoromethyl)benzenesulfonamide], the IC50 is 1.8 nM.

Regarding `Cc1nncn1[C@H]1C[C@@H](NS(=O)(=O)c2ccc(-c3ccc(OC(F)(F)F)cc3)c(F)c2)CC(F)(F)C1` [Compound 2Ha, N-[(1R,5S)-3,3-difluoro-5-(3-methyl-4H-1,2,4-triazol-4-yl)cyclohexyl]-2-fluoro-4′-(trifluoromethoxy)biphenyl-4-sulfonamide], the IC50 stood at 1.4 nM.

Compound `CCc1cc(-c2ccc(OC(C)C)cc2)ccc1S(=O)(=O)N[C@H]1CCC[C@@H](n2cnnc2)C1` [Compound 2Aaj, 3-ethyl-4′-isopropoxy-N-[(1S,3R)-3-(4H-1,2,4-triazol-4-yl)cyclohexyl]biphenyl-4-sulfonamide] displayed a 50% inhibitory concentration (IC50) of 0.8 nM.

Turning to `O=S(=O)(N[C@H]1CCC[C@@H](n2cnnc2)C1)c1cc(-c2ccc(C(F)(F)F)cc2)cc(C(F)(F)F)c1` [Compound 3Al, N-[(1S,3R)-3-(4H-1,2,4-triazol-4-yl)cyclohexyl]-4′,5-bis(trifluoromethyl)biphenyl-3-sulfonamide], the IC50 turned out to be 8.1 nM.

Regarding `CCc1cc(-c2ccc(OC(F)(F)F)cc2)ccc1S(=O)(=O)N[C@H]1CCC[C@@H](n2cnnc2)C1` [Compound 2b, 3-ethyl-N-[(1S,3R)-3-(4H-1,2,4-triazol-4-yl)cyclohexyl]-4′-(trifluoromethoxy)biphenyl-4-sulfonamide], the IC50 was determined as 3.6 nM.

As for `Cc1nncn1[C@@H]1CCC[C@H](NS(=O)(=O)c2ccc(OCCCCF)c(F)c2)C1` [Compound 2Fi, 3-fluoro-4-(4-fluorobutoxy)-N-[(1S,3R)-3-(3-methyl-4H-1,2,4-triazol-4-yl)cyclohexyl]benzenesulfonamide], the IC50 stood at 9.7 nM.

Regarding `CCc1cc(-c2cccnc2OCC(F)(F)F)cc(S(=O)(=O)N[C@H]2CCC[C@@H](n3cnnc3)C2)c1` [Compound 3Bam, 3-ethyl-N-[(1S,3R)-3-(4H-1,2,4-triazol-4-yl)cyclohexyl]-5-[2-(2,2,2-trifluoroethoxy)pyridin-3-yl]benzenesulfonamide], the IC50 is 9.5 nM.

For `Cc1nncn1[C@@H]1CCC[C@H](NS(=O)(=O)c2ccc(OCCCCF)cc2)C1` [Compound 2Nad, 4-(4-fluorobutoxy)-N-[(1S,3R)-3-(3-methyl-4H-1,2,4-triazol-4-yl)cyclohexyl]benzenesulfonamide], the IC50 was 11 nM.

Turning to `O=S(=O)(N[C@H]1CCC[C@@H](n2cnnc2)C1)c1ccc(-c2ccc(OC(F)F)cc2)c(F)c1` [Compound 2Ec, 4′-(difluoromethoxy)-2-fluoro-N-[(1S,3R)-3-(4H-1,2,4-triazol-4-yl)cyclohexyl]biphenyl-4-sulfonamide], the IC50 turned out to be 2.6 nM.

`Cc1cn2nc(-c3cc(C(F)(F)F)cc(S(=O)(=O)N[C@H]4CCC[C@@H](n5cnnc5)C4)c3)ccc2n1` [Compound 3Aai, 3-(2-methylimidazo[1,2-b]pyridazin-6-yl)-N-[(1S,3R)-3-(4H-1,2,4-triazol-4-yl)cyclohexyl]-5-(trifluoromethyl)benzenesulfonamide] yielded an IC50 of 4.1 nM.

`CCc1cc(-c2cccnc2)ccc1S(=O)(=O)N[C@H]1CCC[C@@H](n2cnnc2)C1` [Compound 2Ao, 2-ethyl-4-pyridin-3-yl-N-[(1S,3R)-3-(4H-1,2,4-triazol-4-yl)cyclohexyl]benzenesulfonamide]: the IC50 is 159 nM.

Regarding `CCc1cc([N+](=O)[O-])ccc1S(=O)(=O)N[C@H]1CCC[C@@H](n2cnnc2)C1` [Compound 2Ae, 2-ethyl-4-nitro-N-[(1S,3R)-3-(4H-1,2,4-triazol-4-yl)cyclohexyl]benzenesulfonamide], the IC50 was 381 nM.

The compound `CCc1cc(OCCCC(F)(F)F)ccc1S(=O)(=O)N[C@H]1CCC[C@@H](n2cnnc2)C1` [Compound 2Abi, 2-ethyl-N-[(1S,3R)-3-(4H-1,2,4-triazol-4-yl)cyclohexyl]-4-(4,4,4-trifluorobutoxy)benzenesulfonamide] returned an IC50 of 2.7 nM.

As for `CCOc1ccc(S(=O)(=O)N[C@H]2CCC[C@@H](n3cnnc3)C2)cc1` [Compound 2Maa, 4-ethoxy-N-[(1S,3R)-3-(4H-1,2,4-triazol-4-yl)cyclohexyl]benzenesulfonamide], the IC50 was found to be 39 nM.

Turning to `O=S(=O)(N[C@H]1CCC[C@@H](n2cnnc2)C1)c1ccc(OC(F)(F)F)cc1` [Compound 2Mu, N-[(1S,3R)-3-(4H-1,2,4-triazol-4-yl)cyclohexyl]-4-(trifluoromethoxy)benzenesulfonamide], the IC50 worked out at 164 nM.

`CCc1cc(-c2ccncc2)ccc1S(=O)(=O)N[C@H]1CCC[C@@H](n2cnnc2)C1` [Compound 2Ak, 2-ethyl-4-pyridin-4-yl-N-[(1S,3R)-3-(4H-1,2,4-triazol-4-yl)cyclohexyl]benzenesulfonamide] had an IC50 of 95 nM.

Take `O=S(=O)(N[C@H]1CCC[C@@H](n2cnnc2)C1)c1c(F)cc(-c2noc(C3CCC3)n2)cc1C1CC1` [Compound 2Sb, 4-(5-cyclobutyl-1,2,4-oxadiazol-3-yl)-2-cyclopropyl-6-fluoro-N-[(1S,3R)-3-(4H-1,2,4-triazol-4-yl)cyclohexyl]benzenesulfonamide]: the IC50 was found to be 2.6 nM.

`O=S(=O)(N[C@H]1CCC[C@@H](n2cnnc2)C1)c1cc(C(F)(F)F)cc(C(F)(F)F)c1` [2 Mb, N-[(1S,3R)-3-(4H-1,2,4-triazol-4-yl)cyclohexyl]-3,5-bis(trifluoromethyl)benzenesulfonamide] registered an IC50 of 280 nM.

`Cc1nncn1[C@@H]1CCC[C@H](NS(=O)(=O)c2ccc(-c3ccc(OCC(F)(F)F)cc3)c(F)c2)C1` [Compound 2Fb, 2-fluoro-N-[(1S,3R)-3-(3-methyl-4H-1,2,4-triazol-4-yl)cyclohexyl]-4′-(2,2,2-trifluoroethoxy)biphenyl-4-sulfonamide] gave an IC50 of 0.8 nM.

Compound “3-(2-cyclopropylpyrimidin-4-yl)-N-[(1R,5S)-3,3-difluoro-5-(3-methyl-4H-1,2,4-triazol-4-yl)cyclohexyl]-5-(trifluoromethyl)benzenesulfonamide [Compound 9Aa]” gave an IC50 of 2.2 nM.

On to `O=S(=O)(N[C@H]1CCC[C@@H](n2cnnc2)C1)c1cc(-c2cccc3ccccc23)cc(C(F)(F)F)c1` [Compound 3Ao, 3-(1-naphthyl)-N-[(1S,3R)-3-(4H-1,2,4-triazol-4-yl)cyclohexyl]-5-(trifluoromethyl)benzenesulfonamide], for which the IC50 was determined as 15 nM.
